The text below walks through data of patent US20150080844A1, “THERAPY FOR KIDNEY DISEASE AND/OR HEART FAILURE BY INTRADERMAL INFUSION” (Medtronic, Inc., priority 2012, published 2015).

For orientation: AUC means concentration integrated over time. As usually defined, the bioavailability is dose-corrected exposure relative to a reference, in per cent. The low end stands for little systemic uptake, the high end for much systemic uptake.

Where two headings read alike, the source gives them in different places.

Details of series [1]: species or system humans. To be noted: in vivo. How it is done:
(§1) Osterode et al. published plasma concentration data for humans injected with ANP by either SQ or IV bolus. FIG. 5 presents the IV bolus data (FIG. 5A) and SQ bolus data (FIG. 5B) from the Osterode et al. with selected points digitized shown by open circles.
The digitized data points from FIG. 5A and FIG. 5B were baseline-corrected and analyzed using a commercial pharmacokinetic analysis software package (Phoenix v6.2, Pharsight, Cary, N.C.). Non-compartmental analysis (NCA) was performed first, followed by compartmental modeling. Bioavailability for administration into the SQ space (F) was estimated by dividing the area-under-the-curve (AUC) for the SQ bolus (FIG. 5B) by the AUC IV bolus (FIG. 5A), which was assumed to have 100% bioavailability. The slope of the terminal phase (λZ) for the IV and SQ data from FIG. 5 was estimated using linear regression. The estimate for λZ was converted to a half-life (t1/2) using Equation 1. […]
Similarly, the one-compartmental model for SQ bolus injection can be modeled by Equations 4 and 5, where Aa is the amount of drug in the injection site (pmol), ka is the absorption rate constant (1/min), and F is the bioavailability as a unitless decimal. […] Clearance (CL) and t½ were calculated as secondary model parameters. […]

Another series is described as follows: clinical. More on the design: species or system humans. To be noted: in vivo; for bioavailability: F (bioavailability). The protocol: as §1
The digitized data points from FIG. 5A and FIG. 5B were baseline-corrected and analyzed using a commercial pharmacokinetic analysis software package (Phoenix v6.2, Pharsight, Cary, N.C.). Non-compartmental analysis (NCA) was performed first, followed by compartmental modeling. Bioavailability for administration into the SQ space (F) was estimated by dividing the area-under-the-curve (AUC) for the SQ bolus (FIG. 5B) by the AUC IV bolus (FIG. 5A), which was assumed to have 100% bioavailability. The slope of the terminal phase (λZ) for the IV and SQ data from FIG. 5 was estimated using linear regression. The estimate for λZ was converted to a half-life (t1/2) using Equation 1.
Similarly, the one-compartmental model for SQ bolus injection can be modeled by Equations 4 and 5, where Aa is the amount of drug in the injection site (pmol), ka is the absorption rate constant (1/min), and F is the bioavailability as a unitless decimal. The initial estimates for primary model parameters ke and V/F were taken from the results of the NCA analysis of the IV data (ke=λZ) from the IV bolus data in FIG. 5A from Osterode et al. The initial estimate for the primary model parameter ka was taken from the results of the NCA analysis of the SQ data (ka=λZ) from the SQ bolus data in FIG. 5B. Clearance (CL) and t½ were calculated as secondary model parameters.
Table 1 reports the values for AUC, elimination t1/2, volume of distribution (V) and clearance (CL) reported by Osterode et al. compared to those obtained from the NCA analysis of the digitized data as described above.
The results of the one-compartment modeling of the data from Osterode et al. are reported in Table 2 and FIG. 7, where the present NCA results are also included for comparison. FIGS. 7A (log scale) and 7B (non-log scale) show a model for a 50 μg IV bolus and FIGS. 7C (log scale) and 7D (non-log scale) show a model for a 50 μg SQ bolus. Both the NCA and compartmental analysis estimate the bioavailability to be approximately 20%. It is notable that the estimates for ka from the SQ bolus data are nearly identical for the NCA and compartmental analysis (0.039 min^−1), while the compartmental analysis estimate for ke is 2.6-times greater than the NCA estimate (0.26 vs. 0.099 min^−1).

For series [2] the following is noted: in vivo, iv, 50 ug; cited from earlier work.
The conditions of series [3]: in vivo, cited from earlier work.
The conditions of series [4]: intradermal delivery; literature; cited from earlier work.

In the case of `CC[C@H](C)[C@@H]1NC(=O)[C@H](CCCNC(=N)N)NC(=O)[C@H](CC(=O)O)NC(=O)[C@H](CCSC)NC(=O)[C@H](CCCNC(=N)N)NC(=O)CNC(=O)CNC(=O)[C@H](Cc2ccccc2)NC(=O)[C@@H](NC(=O)[C@H](CO)NC(=O)[C@H](CO)NC(=O)[C@H](CCCNC(=N)N)NC(=O)[C@H](CCCNC(=N)N)NC(=O)[C@H](CC(C)C)NC(=O)[C@@H](N)CO)CSSC[C@@H](C(=O)N[C@@H](CC(N)=O)C(=O)N[C@@H](CO)C(=O)N[C@@H](Cc2ccccc2)C(=O)N[C@@H](CCCNC(=N)N)C(=O)N[C@@H](Cc2ccc(O)cc2)C(=O)O)NC(=O)CNC(=O)[C@H](CC(C)C)NC(=O)CNC(=O)[C@H](CO)NC(=O)[C@H](CCC(N)=O)NC(=O)[C@H](C)NC(=O)CNC1=O` [ANP, atrial natriuretic peptide], the AUC is 1731 pmol·min/L in series [1] (human, iv, 50 ug); 344 pmol·min/L in the series “clinical” (human, 50 ug); 1793 pmol·min/L in series [2]; 345 pmol·min/L in series [3] (50 ug). Besides, the results for the ke (in series [1]; in “clinical”) were 0.099 min⁻¹ and 0.26 min⁻¹, respectively. For the same compound, the bioavailability in the series “clinical” (human) was around 20%; in the series “clinical” (human, iv), around 20%. Also, the “F (bioavailability)” value in “clinical” (human, iv) was 19.9%; in series [3] (human), 19.2%. Also, in the series “clinical”, the V/F was 167 L. Also, the “compartmental analysis estimate for ke relative to NCA estimate” value in the series “clinical” is listed as 2.6 times. For the same compound, in “clinical”, the “ke/ka (elimination greater than absorption)” value is recorded as 6.6. Further, the “mean terminal half-life, SQ bolus compared to IV bolus” value in series [3] (50 ug) was 3 fold.

Consider Entanercept, for which, in series [4], the “bioavailability (in words)” value was “high bioavailability”.

On to Somatropin, for which the “bioavailability (in words)” value in series [4] is recorded as “high bioavailability”.
